Data from paper PMC2360155, “Novel retinoic acid metabolism blocking agents have potent inhibitory activities on human breast cancer cells and tumour growth” (British Journal of Cancer, 2007).

Tests used:
[1] = system: CK 8/18; experiment: Western immunoblotting for CK 8/18 in MCF-7 and T47D cells; type: cell-based, human; conditions: 6 days; for Increase in expression of CK 8/18 compared with control: 1 and 5 μM, MCF-7 and T47D cells; for Effect on expression of CK 8/18 (in words): 5 μM, MCF-7 cells
Procedure: At the end of the treatment, cells were scrapped and collected by washing with ice-cold PBS in a centrifuge tube. Cells were centrifuged at 2500 r.p.m. for 10 min, the pellet was again washed with ice-cold PBS and centrifuged. The cell pellet was then suspended in chilled cell lysis buffer (0.1 M Tris–HCl, 0.5% Triton X-100, protease inhibitor cocktail) and sonicated on ice for 10–15 s. The homogenate was kept on ice for 30 min and then centrifuged at 13 000 r.p.m. for 30 min. The supernatant was used as cell lysate. The cell lysates were stored at −80°C. Protein concentration of the cell lysates was determined using Bio-Rad protein assay reagents.
Protein lysates from MCF-7 and T47D cells were subjected to sodium dodecyl sulphate–polyacrylamide gel electrophoresis (SDS–PAGE) and immunoblotted for different proteins. Equal amounts of protein (25–50 μg) were subjected to SDS–PAGE at 60 V for 3 h using the mini PROTEAN3 electrophoresis module assembly (Bio-Rad, Hercules, CA, USA), and transferred to nitrocellulose membranes (Hybond ECL, Amersham). Immunodetections were carried out using antibodies against CK 8/18 (1° antibody – 1 : 8000 in 10% milk PBST), E-cadherin (1° antibody – 1 : 1000 in 5% milk in TBST) and ER-α (1° antibody – 1 : 200 in 5% milk PBST) purchased from Santa Cruz Biotechnology Inc. Antibodies against PARP (1° antibody – 1 : 1000 in 5% milk TBST), cyclin- D1 (1° antibody – 1 : 2000 in 10% milk TBST), caspase-9 (1° antibody – 1 : 1000 in 10% milk TBST) and BAD (1° antibody – 1 : 1000 in 5% BSA TBST) were obtained from Cell Signaling Technology. Antibody for β-actin was obtained from Calbiochem (CA, USA). Secondary anti-mouse IgG HRP conjugate antibody was purchased from Calbiochem and Bio-Rad. Secondary anti-rabbit IgG HRP conjugate antibody was bought from Bio-Rad as well as from Kirkegaard and Perry laboratories (Gaithersburg, MD, USA). Immunoreactive bands were visualised using the enhanced chemiluminescence detection reagents and analysis system (Amersham Bioscences) according to the manufacturer's instructions and quantified by densitometry using ImageQuant software version 5.
The effects of these agents on the expression levels of markers associated with differentiation (CK 8/18 and ER-α) were investigated following established procedures ([Jing et al, 1996]; [Korsching et al, 2002]; [Kim and Freeman, 2003]; [Woelfle et al, 2004]). […] At the end of the treatment, cell lysates were prepared and the expression of cytoskeletal proteins CK 8/18 were evaluated by Western immunoblotting. […] Unexpectedly, VN/66-1 and VN/69-1 caused downregulation in the expression of CK 8/18.
Numbers below the blot show fold increase in expression of the protein as analysed by ImageQuant densitometry analysis. […]

[2] = target: T1, CRABPII (Mus musculus, UniProt P22935); experiment: CRABP competition binding assay, CRABPII; conditions: for IC50: competition with [3H]-all-trans-RA
T1 construct: Wild-type full-length cDNAs for mouse CRABPI and CRABPII were subcloned into the prokaryotic expression vector pRSETB; pRSETB vector fusion leader (purified on Ni-NTA, so a His tag); made in house; host or cells: Escherichia coli BL21(DE3)pLys
T1 sequence (P22935 1-138): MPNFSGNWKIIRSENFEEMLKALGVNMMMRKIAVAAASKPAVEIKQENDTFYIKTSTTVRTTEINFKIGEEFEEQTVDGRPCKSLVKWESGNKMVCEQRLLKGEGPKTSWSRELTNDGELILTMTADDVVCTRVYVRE
Procedure: Wild-type full-length cDNAs for mouse CRABPI and CRABPII were subcloned into the prokaryotic expression vector pRSETB and transformed into Escherichia coli strain BL21(DE3)pLys ([Chen et al, 1995]). Recombinant fusion proteins were prepared essentially as we have described previously using Ni-NTA resin ([Chen et al, 1995]). The binding of each RAMBA to CRABPI and CRABPII was determined by competition binding assays as described previously ([Chen et al, 1995]). […] IC50 values were calculated as described above in the RAR binding studies.

[3] = system: MCF-7 cells; set-up: method as in Patel et al. (2004); conditions: inhibition of cell proliferation by 50%; ref Patel et al. (2004); read-out: Cellular IC50, MCF-7; cited from earlier work
[4] = target: T2, CRABPI (Mus musculus, UniProt P62965); experiment: CRABP competition binding assay, CRABPI; conditions: competition with [3H]-all-trans-RA; read-out: CRAPBI IC50
T2 construct: Wild-type full-length cDNAs for mouse CRABPI and CRABPII were subcloned into the prokaryotic expression vector pRSETB; pRSETB vector fusion leader (purified on Ni-NTA, so a His tag); made in house; host or cells: Escherichia coli BL21(DE3)pLys
Procedure: IC50 values were calculated as described above in the RAR binding studies.

[5] = target: T3, RARβ (Mus musculus, UniProt P22605); experiment: Retinoid receptor competition binding assay, RARβ; conditions: competition with 1.0 nM [3H]-all-trans-RA
T3 construct: expressed in transfected cells; host or cells: CV-1 cells
T3 sequence (P22605 1-448 isoform P22605-3): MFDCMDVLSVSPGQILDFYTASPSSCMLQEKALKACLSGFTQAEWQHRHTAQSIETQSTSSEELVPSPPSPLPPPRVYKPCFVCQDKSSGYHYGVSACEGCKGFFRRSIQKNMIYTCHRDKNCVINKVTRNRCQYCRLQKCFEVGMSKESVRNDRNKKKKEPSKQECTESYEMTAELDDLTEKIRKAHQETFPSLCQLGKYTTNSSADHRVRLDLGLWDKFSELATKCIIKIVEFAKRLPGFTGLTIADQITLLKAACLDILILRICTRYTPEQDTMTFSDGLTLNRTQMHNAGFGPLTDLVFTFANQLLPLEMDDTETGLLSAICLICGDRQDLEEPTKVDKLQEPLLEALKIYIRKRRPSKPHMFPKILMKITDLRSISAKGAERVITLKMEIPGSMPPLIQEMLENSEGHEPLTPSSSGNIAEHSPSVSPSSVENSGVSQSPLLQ

T2 sequence (P62965 whole entry, the tested form may be a part): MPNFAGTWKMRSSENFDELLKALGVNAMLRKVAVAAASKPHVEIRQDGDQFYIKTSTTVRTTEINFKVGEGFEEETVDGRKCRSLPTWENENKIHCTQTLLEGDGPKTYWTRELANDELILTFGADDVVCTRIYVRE

SMILES | Increase in expression of CK 8/18 compared with control [1] | Kd ([2]; for comparison) [nM] | IC50 [3] [nM] | IC50 [4] [nM] | IC50 [2] [nM] | IC50 [5] [nM] | Effect on expression of CK 8/18 (in words) [1]
CC1=C(/C=C/C(C)=C/C=C/C(C)=C/C(=O)O)C(C)(C)CCC1 [ATRA, all-trans-retinoic acid, reference compound] | 2–3 fold | 60 | 585 |  |  |  | 
CC1=C(/C=C/C(C)=C/C=C/C(C)=C/C(=O)O)C(C)(C)CCC1n1ccnc1 (stereo not drawn) [VN/14-1] | 2–3 fold |  | 494 | > 500 | > 500 | 200 | 
CC1=C(/C=C/C(C)=C/C=C/C(C)=C/C(=O)Nc2ccc(O)cc2)C(C)(C)CCC1n1ccnc1 (stereo not drawn) [VN/66-1] |  |  | 590 | > 500 | > 500 | > 1000 | downregulation
CC1=C(/C=C/C(C)=C/C=C/C(C)=C\C(=O)Nc2ccc(O)cc2)C(C)(C)CCC1n1ccnc1 (stereo not drawn) [VN/69-1] |  |  | 609 | > 500 | > 500 | > 1000 | downregulation
